In general, MIC refers to the lowest concentration found to suppress growth. The IC50 is the concentration at which inhibition is half-maximal.

Drawing on patent publication US8624034B2, “Fluoro-pyridinone derivatives useful as antibacterial agents” (Pfizer Inc., priority 2011, dated 2014), this text covers MIC and IC50 for six compounds.

SMILES strings stand for the structures. ≈ marks a conversion by molar mass, not a printed value.

Assay [1] has as its system Pseudomonas aeruginosa UI-18: wild-type (PA-7). Nature of the assay: MIC determination, PA-7. In kind it is cell-based. Conditions: Table 2, lower of duplicate values. The method in brief: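 P. aeruginosa UI-18 (wild-type) tested by CLSI broth dilution (M7-A8), 2-fold compound series incubated overnight. MIC read visually as lowest concentration preventing growth versus drug-free control; duplicates within 2-fold, lower value reported, with QC organisms and reference compounds in range.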

Assay [2] concerns Escherichia coli EC-1: VOGEL, mouse virulent. Nature of the assay: MIC determination, EC-1. In kind it is cell-based. Conditions: Escherichia coli, read-out: EC-1 (MIC), Table 2, lower of duplicate values. The method in brief: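 Duplicate runs differing by more than 2-fold were repeated, and otherwise the lower MIC was kept. The test organism was E. coli EC-1 (VOGEL, mouse virulent), incubated overnight across 2-fold compound dilutions following CLSI guidelines. The MIC was read visually as the lowest concentration inhibiting growth relative to drug-free control.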

The subject of assay [3] is Acinetobacter baumannii/haemolyticus, multidrug-resistant clinical isolate (AB-3167). Kind of assay: MIC determination, AB-3167. In kind it is cell-based. Conditions: Table 2, lower of duplicate values. The gist of the method:
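MIC read visually after overnight growth across 2-fold concentration steps in the CLSI dilution method against the multidrug-resistant clinical isolate. Duplicate determinations, lower value reported when within 2-fold, otherwise repeated; every run checked with control organisms and reference drugs.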

In assay [4] the target is T1, Pseudomonas aeruginosa LpxC enzyme (Pseudomonas aeruginosa, UniProt P47205).
T1 construct: made in house; host or cells: E. coli
T1 sequence (P47205 1-303): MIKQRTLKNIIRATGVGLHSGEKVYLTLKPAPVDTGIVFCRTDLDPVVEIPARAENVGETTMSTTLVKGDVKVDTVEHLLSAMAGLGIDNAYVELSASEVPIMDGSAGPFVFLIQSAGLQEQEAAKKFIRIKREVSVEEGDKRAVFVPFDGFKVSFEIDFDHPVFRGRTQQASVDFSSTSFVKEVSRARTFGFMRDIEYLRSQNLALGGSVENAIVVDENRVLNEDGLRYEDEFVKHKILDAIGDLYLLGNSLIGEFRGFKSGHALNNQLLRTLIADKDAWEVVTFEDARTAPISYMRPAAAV
Kind of assay: IC50 assay, LpxC enzyme from P. aeruginosa (PA LpxC enzyme IC50). In kind it is biochemical. Conditions: Table 2; LpxC enzyme 0.1 nM, 25° C., 1 hour; read-out: PA:IC50. The gist of the method: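 IC50 values came from percent conversion, referenced to a no-enzyme control. Conversion was read by RapidFire HTMS mass spectrometry after HCl quench of the 1 h enzyme reaction.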

With `COc1ccc(-c2cc(=O)n(CC[C@](C)(C(=O)NO)S(C)(=O)=O)cc2F)cc1C` [Example 34, (2R)-4-[5-Fluoro-4-(4-methoxy-3-methylphenyl)-2-oxopyridin-1(2H)-yl]-N-hydroxy-2-methyl-2-(methylsulfonyl)butanamide], the MIC in assay [1] is 0.5 µg/mL (≈ 1.17 µM); in assay [2] it was 0.25 µg/mL (≈ 0.586 µM); in assay [3], over 64 µg/mL. Moreover, the IC50 in assay [4] was 0.834 nM.
As for `C[C@@](CCn1cc(F)c(-c2ccccc2)c(O)c1=O)(C(=O)NO)S(C)(=O)=O` [Example 40, (2R)-4-(5-Fluoro-3-hydroxy-2-oxo-4-phenylpyridin-1(2H)-yl)-N-hydroxy-2-methyl-2-(methylsulfonyl)butanamide], the minimum inhibitory concentration (MIC) in assay [1] was found to be 16 µg/mL (≈ 40.2 µM); in assay [2], 16 µg/mL (≈ 40.2 µM); in assay [3] it was 64 µg/mL (≈ 161 µM). The concentration for half-maximal inhibition (IC50) in assay [4] was over 100 nM.
Consider `C[C@@](CCn1cc(F)c(-c2ccc(OC3COC3)cc2)cc1=O)(C(=O)NO)S(C)(=O)=O` [Example 15, (2R)-4-{5-fluoro-4-[4-(oxetan-3-yloxy)phenyl]-2-oxopyridin-1(2H)-yl}-N-hydroxy-2-methyl-2-(methylsulfonyl)butanamide], for which the minimum inhibitory concentration (MIC) in assay [1] was 16 µg/mL (≈ 35.2 µM); in assay [2], 16 µg/mL (≈ 35.2 µM); in assay [3], over 64 µg/mL. Further, the 50% inhibitory concentration (IC50) in assay [4] was found to be 2.05 nM.
Take `C[C@@](CCn1cc(F)c(-c2ccccc2)c(F)c1=O)(C(=O)NO)S(C)(=O)=O` [Example 38, (2R)-4-(3,5-Difluoro-2-oxo-4-phenylpyridin-1(2H)-yl)-N-hydroxy-2-methyl-2-(methylsulfonyl)butanamide]: the MIC was 0.5 µg/mL (≈ 1.25 µM) in assay [1], 1 µg/mL (≈ 2.5 µM) in assay [2] and over 64 µg/mL in assay [3]. Further, in assay [4], the half-inhibitory concentration (IC50) came out at 0.55 nM.
For `C[C@@](CCn1cc(F)c(-c2ccc3c(c2)CCCO3)cc1=O)(C(=O)NO)S(C)(=O)=O` [Example 8, (2R)-4-[4-(3,4-Dihydro-2H-chromen-6-yl)-5-fluoro-2-oxopyridin-1(2H)-yl]-N-hydroxy-2-methyl-2-(methylsulfonyl)butanamide] the same measures were 1 µg/mL (≈ 2.28 µM), 0.5 µg/mL (≈ 1.14 µM), over 64 µg/mL and 0.377 nM.
`C[C@@](CCn1cc(F)c(-c2ccc3nccnc3c2)cc1=O)(C(=O)NO)S(C)(=O)=O` [Example 24, (2R)-4-(5-Fluoro-2-oxo-4-quinoxalin-6-ylpyridin-1(2H)-yl)-N-hydroxy-2-methyl-2-(methylsulfonyl)butanamide]: the values for the MIC in assay [1], in assay [2] and in assay [3] were 4 µg/mL (≈ 9.21 µM), 4 µg/mL (≈ 9.21 µM) and over 64 µg/mL, respectively. For the same compound, the IC50 in assay [4] stood at 1.23 nM.
